The text below walks through data of ChEMBL document CHEMBL5465560, “Selectivity Literature for EUbOPEN Chemogenomic Library” (2024).

Structures are written as SMILES.

Test [1] addresses T1, Mitogen-activated protein kinase 15 (Homo sapiens) (UniProt Q8TD08).
T1 sequence (whole entry): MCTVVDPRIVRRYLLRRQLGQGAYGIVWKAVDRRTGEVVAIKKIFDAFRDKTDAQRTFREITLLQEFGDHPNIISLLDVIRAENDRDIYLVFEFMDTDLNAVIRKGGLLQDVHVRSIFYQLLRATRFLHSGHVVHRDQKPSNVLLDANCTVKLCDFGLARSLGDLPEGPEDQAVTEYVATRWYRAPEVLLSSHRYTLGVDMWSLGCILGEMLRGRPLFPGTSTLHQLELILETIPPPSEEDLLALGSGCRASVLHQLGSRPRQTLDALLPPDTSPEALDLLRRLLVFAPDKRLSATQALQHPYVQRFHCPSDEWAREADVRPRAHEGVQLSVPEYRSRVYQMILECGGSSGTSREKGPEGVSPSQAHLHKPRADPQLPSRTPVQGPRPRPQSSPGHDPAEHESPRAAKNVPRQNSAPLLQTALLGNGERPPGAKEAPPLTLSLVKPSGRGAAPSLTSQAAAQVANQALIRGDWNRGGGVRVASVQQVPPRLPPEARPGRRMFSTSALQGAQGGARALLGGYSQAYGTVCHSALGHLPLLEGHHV
In words: Selectivity interaction (ProQinase) EUB0000171b MAPK15.

In test [2] the target is CDK12/Cyclin K (Homo sapiens) (UniProt O75909+Q9NYV4). The experiment in a line: Selectivity interaction (ProQinase) EUB0000171b CDK12. Type of test: protein-complex assay. The settings on record: at 1 µM.
The target of test [3] is T2, Serine/threonine-protein kinase TAO1 (Homo sapiens) (UniProt Q7L7X3).
T2 sequence (whole entry): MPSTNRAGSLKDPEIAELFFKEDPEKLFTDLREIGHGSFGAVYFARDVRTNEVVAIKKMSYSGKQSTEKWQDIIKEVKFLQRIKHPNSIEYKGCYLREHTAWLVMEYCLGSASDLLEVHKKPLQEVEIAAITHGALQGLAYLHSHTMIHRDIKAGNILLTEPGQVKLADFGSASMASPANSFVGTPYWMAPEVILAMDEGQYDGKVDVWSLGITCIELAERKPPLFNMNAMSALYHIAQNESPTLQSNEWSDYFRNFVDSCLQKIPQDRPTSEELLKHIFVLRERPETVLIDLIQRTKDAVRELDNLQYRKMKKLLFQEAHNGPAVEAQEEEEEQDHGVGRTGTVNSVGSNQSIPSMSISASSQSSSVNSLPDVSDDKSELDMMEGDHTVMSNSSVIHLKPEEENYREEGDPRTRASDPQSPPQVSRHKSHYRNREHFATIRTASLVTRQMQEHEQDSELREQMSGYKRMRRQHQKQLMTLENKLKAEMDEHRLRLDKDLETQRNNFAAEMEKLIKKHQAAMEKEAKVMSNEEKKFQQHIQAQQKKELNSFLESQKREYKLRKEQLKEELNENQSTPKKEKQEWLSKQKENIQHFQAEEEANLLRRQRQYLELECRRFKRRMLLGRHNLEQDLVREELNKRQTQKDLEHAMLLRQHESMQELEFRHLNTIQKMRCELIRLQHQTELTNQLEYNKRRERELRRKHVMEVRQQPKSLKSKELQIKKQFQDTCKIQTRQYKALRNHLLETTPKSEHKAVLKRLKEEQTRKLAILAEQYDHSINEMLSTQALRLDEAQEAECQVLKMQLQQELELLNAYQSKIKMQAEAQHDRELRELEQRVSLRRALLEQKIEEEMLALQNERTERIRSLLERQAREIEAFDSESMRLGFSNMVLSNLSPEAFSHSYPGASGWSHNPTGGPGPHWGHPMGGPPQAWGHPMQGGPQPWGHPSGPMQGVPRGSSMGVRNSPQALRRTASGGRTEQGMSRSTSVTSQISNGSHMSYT
The experiment in a line: Selectivity interaction (KinomeScan (DiscoverX)) EUB0000092b TAOK1. To be noted: at 10 µM.

Test [4] has as its target Tyrosine-protein kinase Lyn (Homo sapiens, UniProt P07948). In words: Selectivity interaction (Kinase panel (Z-LYTE Assay)) EUB0001632a LYN. To be noted: at 10 µM.
For test [5], the target named is STE20/SPS1-related proline-alanine-rich protein kinase (Homo sapiens) (UniProt Q9UEW8). In words: Selectivity interaction (KinomeScan (DiscoverX)) EUB0000607a STK39. The settings on record: at 10 µM.
Test [6] deals with Mitogen-activated protein kinase kinase kinase 14 (Homo sapiens) (UniProt Q99558). The experiment in a line: Selectivity interaction (KinomeScan (DiscoverX)) EUB0000229b MAP3K14. The settings on record: at 10 µM.
Test [7] has as its target T3, Rhodopsin kinase GRK1 (Homo sapiens) (UniProt Q15835).
T3 sequence (whole entry): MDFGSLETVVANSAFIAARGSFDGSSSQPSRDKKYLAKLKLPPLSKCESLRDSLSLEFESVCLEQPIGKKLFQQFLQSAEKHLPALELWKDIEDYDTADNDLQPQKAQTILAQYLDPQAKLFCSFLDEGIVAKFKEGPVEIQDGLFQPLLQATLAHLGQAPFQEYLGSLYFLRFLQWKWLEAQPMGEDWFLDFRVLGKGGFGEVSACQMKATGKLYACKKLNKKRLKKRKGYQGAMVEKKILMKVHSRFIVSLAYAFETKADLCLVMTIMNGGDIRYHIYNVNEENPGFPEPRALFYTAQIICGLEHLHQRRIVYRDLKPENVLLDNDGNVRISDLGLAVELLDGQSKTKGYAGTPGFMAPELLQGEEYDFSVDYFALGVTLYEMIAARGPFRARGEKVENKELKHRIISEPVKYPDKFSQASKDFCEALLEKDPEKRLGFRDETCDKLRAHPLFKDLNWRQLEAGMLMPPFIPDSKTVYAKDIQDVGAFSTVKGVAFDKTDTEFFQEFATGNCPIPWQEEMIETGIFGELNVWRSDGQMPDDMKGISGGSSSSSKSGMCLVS
In words: Selectivity interaction (KinomeScan (DiscoverX)) EUB0000595a GRK1. To be noted: at 10 µM.

In test [8] the target is T4, Mitogen-activated protein kinase 13 (Homo sapiens) (UniProt O15264).
T4 sequence (whole entry): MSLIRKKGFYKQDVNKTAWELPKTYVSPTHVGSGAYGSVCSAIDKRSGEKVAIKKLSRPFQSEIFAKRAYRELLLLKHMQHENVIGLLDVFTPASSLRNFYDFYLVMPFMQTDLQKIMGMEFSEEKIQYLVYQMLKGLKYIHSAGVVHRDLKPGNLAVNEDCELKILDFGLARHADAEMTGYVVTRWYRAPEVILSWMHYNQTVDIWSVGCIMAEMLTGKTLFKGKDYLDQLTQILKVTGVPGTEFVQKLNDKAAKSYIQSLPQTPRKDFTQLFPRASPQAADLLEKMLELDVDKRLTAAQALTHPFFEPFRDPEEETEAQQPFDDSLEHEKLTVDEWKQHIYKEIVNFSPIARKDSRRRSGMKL
The experiment in a line: Selectivity interaction (Kinase panel (KiNativ target engagement assay in Jurkat cells)) EUB0001635a MAPK13. It is filed as cell-based. To be noted: Selectivity number of off-targets 0.0, Selectivity number of targets 233.0, Source Knowledge https://www.sciencedirect.com/science/article/pii/S2451945619300674?via%3Dihub, at 1 µM.

Chain of CDK12/Cyclin K (Homo sapiens) (O75909 whole entry, looked up): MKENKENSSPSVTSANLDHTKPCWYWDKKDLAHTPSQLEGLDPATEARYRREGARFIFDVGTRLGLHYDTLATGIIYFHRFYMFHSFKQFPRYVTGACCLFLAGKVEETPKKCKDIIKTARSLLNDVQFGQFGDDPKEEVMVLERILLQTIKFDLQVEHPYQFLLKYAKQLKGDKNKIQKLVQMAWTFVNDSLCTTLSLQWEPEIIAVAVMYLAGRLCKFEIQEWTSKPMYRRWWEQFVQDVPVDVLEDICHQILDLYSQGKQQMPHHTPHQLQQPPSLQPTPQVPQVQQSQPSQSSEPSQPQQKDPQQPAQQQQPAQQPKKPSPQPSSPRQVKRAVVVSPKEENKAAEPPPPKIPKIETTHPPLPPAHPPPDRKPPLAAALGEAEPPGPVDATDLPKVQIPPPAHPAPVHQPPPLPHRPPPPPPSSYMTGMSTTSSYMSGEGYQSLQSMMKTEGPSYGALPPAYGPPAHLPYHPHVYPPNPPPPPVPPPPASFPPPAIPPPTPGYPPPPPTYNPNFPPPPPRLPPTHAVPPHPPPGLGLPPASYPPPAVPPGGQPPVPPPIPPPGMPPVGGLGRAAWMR
Chain of CDK12/Cyclin K (Homo sapiens) (Q9NYV4 whole entry, looked up): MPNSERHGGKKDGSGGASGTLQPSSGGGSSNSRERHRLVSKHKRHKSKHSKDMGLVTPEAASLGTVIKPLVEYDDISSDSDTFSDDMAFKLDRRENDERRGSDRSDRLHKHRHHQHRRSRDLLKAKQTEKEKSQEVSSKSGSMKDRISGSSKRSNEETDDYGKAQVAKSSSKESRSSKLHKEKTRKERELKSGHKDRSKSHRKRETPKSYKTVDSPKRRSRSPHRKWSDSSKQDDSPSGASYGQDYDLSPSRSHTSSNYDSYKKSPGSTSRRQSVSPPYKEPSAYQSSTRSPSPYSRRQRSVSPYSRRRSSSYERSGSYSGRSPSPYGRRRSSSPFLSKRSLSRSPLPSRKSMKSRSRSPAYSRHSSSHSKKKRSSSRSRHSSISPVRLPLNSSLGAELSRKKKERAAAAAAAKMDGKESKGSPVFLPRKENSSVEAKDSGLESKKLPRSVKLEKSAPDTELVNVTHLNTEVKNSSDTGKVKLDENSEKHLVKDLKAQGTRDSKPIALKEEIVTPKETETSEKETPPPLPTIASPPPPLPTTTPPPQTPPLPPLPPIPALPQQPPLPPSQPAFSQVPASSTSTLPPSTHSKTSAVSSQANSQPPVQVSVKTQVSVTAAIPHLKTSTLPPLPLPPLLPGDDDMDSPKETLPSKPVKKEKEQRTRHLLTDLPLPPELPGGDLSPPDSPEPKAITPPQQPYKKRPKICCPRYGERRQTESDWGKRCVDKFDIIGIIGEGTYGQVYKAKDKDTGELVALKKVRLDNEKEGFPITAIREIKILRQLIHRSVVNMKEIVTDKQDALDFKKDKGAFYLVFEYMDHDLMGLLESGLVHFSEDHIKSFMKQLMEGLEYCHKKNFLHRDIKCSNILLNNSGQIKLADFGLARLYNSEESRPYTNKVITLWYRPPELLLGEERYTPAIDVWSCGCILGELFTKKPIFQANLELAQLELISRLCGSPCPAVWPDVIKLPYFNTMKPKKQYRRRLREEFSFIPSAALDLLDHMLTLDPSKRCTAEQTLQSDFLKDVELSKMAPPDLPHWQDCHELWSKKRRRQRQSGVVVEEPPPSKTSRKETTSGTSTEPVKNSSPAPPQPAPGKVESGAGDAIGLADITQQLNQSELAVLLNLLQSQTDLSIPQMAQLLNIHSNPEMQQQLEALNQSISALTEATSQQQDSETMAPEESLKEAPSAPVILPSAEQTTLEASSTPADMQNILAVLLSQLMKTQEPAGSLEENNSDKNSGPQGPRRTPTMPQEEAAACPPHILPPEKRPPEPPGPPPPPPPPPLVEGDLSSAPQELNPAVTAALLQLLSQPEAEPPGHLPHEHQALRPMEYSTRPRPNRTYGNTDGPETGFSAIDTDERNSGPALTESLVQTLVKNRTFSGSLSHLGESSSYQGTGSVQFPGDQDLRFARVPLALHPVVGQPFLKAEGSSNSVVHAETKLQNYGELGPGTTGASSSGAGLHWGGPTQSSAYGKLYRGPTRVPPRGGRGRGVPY
Chain of Mitogen-activated protein kinase kinase kinase 14 (Homo sapiens) (Q99558 whole entry, looked up): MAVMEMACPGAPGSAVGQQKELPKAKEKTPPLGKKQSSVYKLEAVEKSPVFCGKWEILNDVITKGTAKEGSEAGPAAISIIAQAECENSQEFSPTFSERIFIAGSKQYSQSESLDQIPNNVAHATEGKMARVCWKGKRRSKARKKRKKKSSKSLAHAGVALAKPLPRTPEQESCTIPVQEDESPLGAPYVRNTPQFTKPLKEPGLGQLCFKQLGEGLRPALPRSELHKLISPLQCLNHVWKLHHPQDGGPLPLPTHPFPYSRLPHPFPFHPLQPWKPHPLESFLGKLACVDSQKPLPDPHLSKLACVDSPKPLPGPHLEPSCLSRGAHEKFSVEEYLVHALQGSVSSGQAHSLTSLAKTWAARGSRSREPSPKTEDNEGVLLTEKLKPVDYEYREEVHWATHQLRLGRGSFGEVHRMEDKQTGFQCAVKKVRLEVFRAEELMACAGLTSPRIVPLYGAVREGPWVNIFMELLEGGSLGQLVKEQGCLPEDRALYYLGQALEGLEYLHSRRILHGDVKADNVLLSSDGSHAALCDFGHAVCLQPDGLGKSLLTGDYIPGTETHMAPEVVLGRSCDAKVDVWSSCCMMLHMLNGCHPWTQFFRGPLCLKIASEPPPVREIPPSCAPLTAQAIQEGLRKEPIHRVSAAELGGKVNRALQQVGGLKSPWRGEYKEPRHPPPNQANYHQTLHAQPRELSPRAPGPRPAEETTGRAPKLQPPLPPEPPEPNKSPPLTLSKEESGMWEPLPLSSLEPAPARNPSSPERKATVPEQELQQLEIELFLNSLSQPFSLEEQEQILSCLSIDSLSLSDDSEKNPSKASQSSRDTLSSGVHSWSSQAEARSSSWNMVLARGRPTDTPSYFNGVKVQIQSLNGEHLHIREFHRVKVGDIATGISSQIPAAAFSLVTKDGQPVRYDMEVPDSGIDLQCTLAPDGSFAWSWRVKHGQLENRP
Chain of Tyrosine-protein kinase Lyn (P07948 2-512 limits assumed): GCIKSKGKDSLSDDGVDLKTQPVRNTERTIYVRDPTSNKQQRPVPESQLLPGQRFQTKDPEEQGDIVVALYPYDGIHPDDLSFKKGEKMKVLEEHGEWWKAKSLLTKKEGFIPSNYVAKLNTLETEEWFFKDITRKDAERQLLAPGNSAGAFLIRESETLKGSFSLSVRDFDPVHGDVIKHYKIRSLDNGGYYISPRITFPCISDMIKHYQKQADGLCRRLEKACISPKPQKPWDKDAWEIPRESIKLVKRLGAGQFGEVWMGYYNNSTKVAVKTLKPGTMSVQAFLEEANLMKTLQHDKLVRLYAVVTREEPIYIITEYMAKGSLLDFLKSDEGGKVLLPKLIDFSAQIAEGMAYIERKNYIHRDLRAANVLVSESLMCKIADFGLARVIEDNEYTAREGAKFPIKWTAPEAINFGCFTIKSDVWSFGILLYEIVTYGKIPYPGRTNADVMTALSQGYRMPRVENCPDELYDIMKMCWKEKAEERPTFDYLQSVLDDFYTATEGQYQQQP

For `C=CC(=O)Nc1cccc(C(=O)Nc2ccc(Nc3cc(-c4[nH]c(SC)nc4C)ccn3)cc2)c1`, the % of control in test [1] (at 1 µM) was determined as 66%; in test [1] (at 5 µM), 31%; in test [2], 82%.
In turn, `CCC(=O)N1CCN(c2ccc(-n3c(=O)ccc4cnc5ccc(-c6cnc7ccccc7c6)cc5c43)cc2C(F)(F)F)CC1` yielded a % of control in test [3] of 58%.
The compound `Cn1cc(-n2cnc3c(NCc4nc5cc(Cl)c(Cl)cc5[nH]4)nc(N4CCOCC4)nc32)cn1` returned a % of control in test [4] of 6.83%.
Take `CNC(=O)Nc1ccc(-c2nc(N3CC4CCC(C3)O4)c3cnn(C4CCC5(CC4)OCCO5)c3n2)cc1`: the % of control in test [5] was 100%.
For the compound `COc1cc(N(C)c2ccnc3ccc(C(F)(F)F)cc23)cc(OC)c1OC`, the % binding in test [6] is 100%.
In test [7], `COCC(=O)NC/C=C/c1ccc2ncnc(Nc3ccc(Oc4ccc(C)nc4)c(C)c3)c2c1` [CP-724714] had a % of control of 100%.
Consider `C=CC(=O)Nc1ccc(C(=O)Nc2[nH]nc3c2CN(C(=O)N[C@H](CN(C)C)c2ccccc2)C3(C)C)cc1`, for which the % of engagement in test [8] is -10.3%.
